Test results reported in PubChem BioAssay (NCI).
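Exposure lasted 48 hours, with cells grown in 96-well plates and compounds tested at five concentrations. The concentration for 50% growth inhibition is given as GI50. TGI is the concentration that stops growth completely.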

Experiments:
Experiment in all cases: DTP human tumour cell line panel, 48 h
[1] = tested on: A498 renal
[2] = tested on: A549 NSCLC
[3] = tested on: K-562 leukemia
[4] = tested on: MDA-MB-435
[5] = tested on: NCI/ADR-RES ovarian
[6] = tested on: OVCAR-8 ovarian
[7] = tested on: SN12C renal
[8] = tested on: TK-10 renal
[9] = tested on: LOX IMVI melanoma
[10] = tested on: HOP-92 NSCLC

Row | Compound | TGI [1] | TGI [2] | TGI [3] | TGI [4] | TGI [5] | TGI [6] | TGI [7] | TGI [8] | TGI [9] | GI50 [10] | TGI [10] | GI50 [3] | GI50 [4]
1 | ClC(Cl)(Cl)C1CCOC1n1nc2ccccc2n1 (stereo not drawn) | > 100 µM | > 100 µM | > 100 µM | > 100 µM | > 100 µM | > 100 µM | > 100 µM | > 100 µM |  |  |  |  | 
2 | N#Cc1ncn(-c2ccccc2)c1N | > 100 µM | > 100 µM | > 100 µM | > 100 µM | > 100 µM | > 100 µM | > 100 µM | > 100 µM | > 100 µM |  |  |  | 
3 | COc1cc2cc(Oc3ccc(NC(=O)Nc4ccc(F)c(C(F)(F)F)c4)cc3)c(C)nc2cc1OCCN1CCCCC1 |  |  | 3.79 µM | 3.14 µM |  |  |  |  |  | 1.52 µM | 3.02 µM | 1.29 µM | 1.74 µM
4 | CSc1c(C(=O)Nc2ccc(C)cc2)c(N)nn1-c1ccccc1 | 75.1 µM | > 100 µM | > 100 µM | > 100 µM |  |  | > 100 µM | > 100 µM | > 100 µM |  | 88.1 µM |  | 
5 | CCOC(=O)c1ncoc1[C@H]1COC(C)(C)O1 |  | > 100 µM | > 100 µM |  |  | > 100 µM | > 100 µM | > 100 µM | > 100 µM |  |  |  | 
6 | O=C1Nc2cccc3ncn(c23)C2=C1CCCC2 |  | > 100 µM | > 100 µM |  |  | > 100 µM | > 100 µM | > 100 µM | > 100 µM |  |  |  | 
7 | O=C(O)C(Cc1ccc2c(c1)CCC2)(Cc1ccc2c(c1)CCC2)C(=O)O | > 100 µM | > 100 µM | > 100 µM | > 100 µM | > 100 µM | > 100 µM | > 100 µM | > 100 µM | > 100 µM |  |  |  | 
8 | S=C(NNC1=NCCCN1)Nc1ccccc1 | > 100 µM | > 100 µM | > 100 µM | > 100 µM | > 100 µM | > 100 µM |  | > 100 µM | > 100 µM |  | > 100 µM |  | 
9 | CC1=C2C(=O)O[C@@H](c3ccoc3)[C@]2(C)CCC1=O | > 100 µM | > 100 µM | > 100 µM | > 100 µM | > 100 µM | > 100 µM | > 100 µM |  | > 100 µM |  | > 100 µM |  | 
10 | O=C1C=C(N2CCCC2)C=C(N2CCCC2)C1 |  | > 100 µM | > 100 µM |  |  | > 100 µM |  | > 100 µM | > 100 µM |  | > 100 µM |  | 
11 | CNNC1=NS(=O)(=O)c2cc(C)c(Cl)cc2S1 | > 10 µM | > 10 µM | > 10 µM | > 10 µM | > 10 µM | > 10 µM | > 10 µM | > 10 µM | > 10 µM |  |  |  | 
12 | CCOc1ccc2ccccc2c1NC1=NCCO1 | 93.8 µM | > 100 µM | 61.3 µM | > 100 µM | > 100 µM | > 100 µM | > 100 µM | > 100 µM |  |  | 42.2 µM |  | 
13 | O=C(O)C(CS)NCc1c2ccccc2[n+]([O-])c2ccccc12 (stereo not drawn) | > 100 µM | > 100 µM | > 100 µM |  |  | > 100 µM | > 100 µM | > 100 µM | > 100 µM |  | 46.5 µM |  | 
14 | Cc1c2c(c(C)n1-c1ccccc1)C(=O)N(CCSC(=N)N)C2=O | > 100 µM | > 100 µM | > 100 µM | > 100 µM | > 100 µM | > 100 µM | > 100 µM | > 100 µM |  |  | > 100 µM |  | 
15 | CCN(CC)CCNC(=O)c1ccc([N+](=O)[O-])cc1OC | > 100 µM | > 100 µM | > 100 µM |  |  | > 100 µM | > 100 µM | > 100 µM | > 100 µM |  | > 100 µM |  | 
16 | O=[N+]([O-])c1cccc(N=C2c3ccccc3CN2c2cccc([N+](=O)[O-])c2)c1 | > 100 µM | > 100 µM | > 100 µM | > 100 µM |  | > 100 µM | > 100 µM | > 100 µM | > 100 µM |  | > 100 µM |  | 
17 | COC(=O)C1Cc2ccc(C)cc2C1=O (stereo not drawn) | > 100 µM | > 100 µM | > 100 µM | > 100 µM | > 100 µM | > 100 µM | > 100 µM | > 100 µM | > 100 µM |  |  |  | 
18 | CSC(SC)=C1C(=O)NN=C1C |  | > 100 µM | > 100 µM | > 100 µM |  |  | > 100 µM | > 100 µM | > 100 µM |  | > 100 µM |  | 
19 | CC(CC(=O)CO[C@H]1[C@H](O)[C@@H](O)[C@@H](O)[C@@H]2NC(=O)c3c(cc4c(c3O)OCO4)[C@H]21)OC1OC(CO)C(O)C(O)C1O (stereo partly drawn) | 4.39 µM | 9.23 µM |  | 4.5 µM | 3.97 µM | 2.07 µM | 2.14 µM | 1.55 µM | 1.32 µM |  | 4.57 µM |  | 
20 | CCCCCCCCCCCCCCCC(=O)ON1C(=S)NC(C)(c2ccccc2)C1=S (stereo not drawn) | > 100 µM | > 100 µM | > 100 µM |  | > 100 µM | > 100 µM | > 100 µM | > 100 µM | > 100 µM |  | > 100 µM |  | 
21 | CC(=O)OC1/C(=C/c2ccc([N+](=O)[O-])cc2)C[C@H]2[C@@H]3CC=C4C[C@@H](OC(C)=O)CC[C@]4(C)[C@H]3CC[C@]12C (stereo partly drawn) | > 96.2 µM | > 100 µM |  | > 100 µM | > 100 µM | > 100 µM | > 100 µM | > 80.3 µM | > 100 µM |  | > 100 µM |  | 
22 | CCOC(=O)C1(Cc2ccccc2)Cc2cc3c(cc2C1)CCC3 | > 100 µM | > 100 µM | > 100 µM | > 100 µM | > 100 µM | > 100 µM | > 100 µM | > 100 µM | 43.9 µM |  |  |  | 
23 | CC12CC3CC/C(=N\O)C(C1)C3(N1CCOCC1)C/C2=N/O (stereo not drawn) | > 100 µM | > 100 µM | > 100 µM | > 100 µM | > 100 µM | > 100 µM | > 100 µM |  | > 100 µM |  | > 100 µM |  | 
24 | N=C(/C=C/c1ccc(-c2cn3cc(/C=C/C(=N)N4CCCC4)ccc3n2)cc1)N1CCCC1 | > 100 µM | > 100 µM | > 100 µM | > 100 µM | > 100 µM | > 100 µM | > 100 µM | > 100 µM |  |  | > 100 µM |  | 
